Data published in ChEMBL document CHEMBL1148065, “Two new flavones from Calliandra californica” (1994).
Activity calls are given as the source filed them. The rule behind the calls is not given here.

Tests used:
[1] = system: Bacillus subtilis; assay: Antimicrobial activity against Bacillus subtilis at 1 mg/disk; assay type: functional
[2] = system: Staphylococcus aureus; assay: Antimicrobial activity against Staphylococcus aureus at 1 mg/disk; assay type: functional

Structure (SMILES)	inhibition zone (IZ) [1]	inhibition zone (IZ) [2]	Activity [1]	Activity [2]
COc1cc(O)c2c(=O)cc(-c3cc(OC)c(OC)cc3OC)oc2c1	11 mm	8 mm		
COc1ccc2c(=O)cc(-c3cc(OC)c(OC)cc3OC)oc2c1			inactive	inactive
